Assays:
[1] = target: T1, NQO1 (DT-diaphorase, EC 1.6.5.5, human recombinant) (Homo sapiens, UniProt P15559); test: NQO1 substrate NADPH recycling enzymatic assay; type: biochemical; settings: for NQO1 activity (enzymatic conversion rate): compound 10 µmol/L, pH 7.4, 25 °C, absorbance at 340 nm
T1 construct: purchased Sigma-Aldrich
Method: The interaction between 1,4-quinone moiety of hybrid and NQO1 protein leads to reduction in quinone to hydroquinone and production of reactive oxide form (ROS). According to a literature method, the ability of hybrids 11–14 and streptonigrin (ST) to be a substrate for NQO1 was examined by measuring the oxidation of NADPH to NADP^+ [29, 32].
Compounds 11–14 (10 µmol/L) were tested as NQO1 substrates using the NADPH recycling assay according to the literature method. The recombinant NQO1 (DT-diaphorase, EC 1.6.5.5, human recombinant, Sigma-Aldrich) was used, and the oxidation of NADPH to NADP^+ was measured at the absorption wavelength of 340 nm on the BioTek 800TS microplate reader (BioKom, Janki, Poland). Compounds were dissolved in dimethyl sulfoxide (2 µL) and added to the 96-well plate. The NQO1 protein (1.4 µg/mL) in 50 mmol/L potassium phosphate buffer (pH = 7.4) was added to each well (198 µL) (Nunc Thermo Fisher Scientific, Waltham, MA, USA). Once the 96-well plate was filled with the assay solutions, except the NADPH solution, it was placed into the instrument and left to sit for 5 min before starting the measurements. The enzymatic reaction was initiated by automatically dispensing the NADPH solution into the wells, and data were recorded at 10 s intervals for 5 min at 25 °C. The linear part of the absorbance vs. time graphs (the first 20 s to 1 min) was fitted, and the slopes were calculated. NADPH oxidation rates were compared with reactions lacking the tested compound. Initial velocities were calculated, and data were expressed as µmol NADPH/µmol NQO1/min. All reactions were carried out at least in triplicate.

Colo-829 cells = test: Cytotoxic activity, WST-1 assay, melanoma Colo-829; type: cell-based, human; settings: for SI (IC50 HFF-1/IC50 cancer line) Colo-829: HFF-1 vs Colo-829; for IC50: Homo sapiens, melanoma Colo-829, 72 h, WST-1
Description: (§1) Anticancer activity of compounds 11–14 was designated against following human cancer cell lines: melanoma (Colo-829), ovarian cancer (SK-OV-3), breast cancer (MDA-MB-231, T47D and MCF-7), lung cancer (A549) and normal fibroblasts (HFF-1). As a reference substance, the doxorubicin was used. The results are presented in Table 1 as IC50, where IC50 means the concentration of tested compounds (µM) causing the growth inhibition of 50% for given tumor cells. The negative value (Neg.) means that the IC50 is higher than 30 µM. Selectivity index (SI) as the ratio of the IC50 for normal fibroblast (HFF-1) to IC50 of the corresponding cell line, is presented in Table S2.
(§2) Compounds 7–14 and doxorubicin were tested for cytotoxic activity in vitro against panel of human cancer cell lines: melanoma (Colo-829, ATCC, Rockville, MD, USA), ovarian cancer (SK-OV-3, ATCC, Rockville, MD, USA), breast cancer (T47D, MCF-7, and MDA-MB-231, ATCC, Rockville, MD, USA) and lung cancer (A549, ATCC, Rockville, MD, USA). The cultured cells were kept at 37 °C and 5% CO2. The cells were seeded (5 × 10^4 cells/well/[…] DMEM supplemented with 10% FCS and streptomycin/penicillin) using 96-well plates (Nunc Thermo Fisher Scientific, Waltham, MA, USA). The tested compounds 7–14 with the concentration of 1–100 µg/mL DMSO were inducted with the cancer cells for 72 h. The WST-1-formazan (proliferation reagent WST-1 assay, Roche Diagnostics, Mannheim, Germany) was detected using a microplate reader at 450 nm. Results were expressed as a mean value of at least three independent experiments performed in triplicate.

SK-OV-3 cells = test: Cytotoxic activity, WST-1 assay, ovarian cancer SK-OV-3; type: cell-based, human; settings: for SI (IC50 HFF-1/IC50 cancer line) SK-OV-3: HFF-1 vs SK-OV-3; for IC50: Homo sapiens, ovarian cancer SK-OV-3, 72 h, WST-1
Description: as §1, §2

MDA-MB-231 cells = test: Cytotoxic activity, WST-1 assay, breast cancer MDA-MB-231; type: cell-based, human; settings: for SI (IC50 HFF-1/IC50 cancer line) MDA-MB-231: HFF-1 vs MDA-MB-231; for IC50: Homo sapiens, breast cancer MDA-MB-231, 72 h, WST-1
Description: as §1, §2

T47D cells = test: Cytotoxic activity, WST-1 assay, breast cancer T47D; type: cell-based, human; settings: for SI (IC50 HFF-1/IC50 cancer line) T47D: HFF-1 vs T47D; for IC50: Homo sapiens, breast cancer T47D, 72 h, WST-1
Description: as §1, §2

MCF-7 cells = test: Cytotoxic activity, WST-1 assay, breast cancer MCF-7; type: cell-based, human; settings: for SI (IC50 HFF-1/IC50 cancer line) MCF-7: HFF-1 vs MCF-7; for IC50: Homo sapiens, MCF7, breast cancer MCF-7, 72 h, WST-1
Description: as §1, §2

A549 cells = test: Cytotoxic activity, WST-1 assay, lung cancer A549; type: cell-based, human; settings: for SI (IC50 HFF-1/IC50 cancer line) A549: HFF-1 vs A549; for IC50: Homo sapiens, lung cancer A549, 72 h, WST-1
Description: as §1, §2

HFF-1 cells = test: Cytotoxic activity, WST-1 assay, normal fibroblasts HFF-1; type: cell-based; settings: Homo sapiens, normal fibroblasts HFF-1, 72 h
Description: as §1, §2

T1 sequence (P15559 whole entry): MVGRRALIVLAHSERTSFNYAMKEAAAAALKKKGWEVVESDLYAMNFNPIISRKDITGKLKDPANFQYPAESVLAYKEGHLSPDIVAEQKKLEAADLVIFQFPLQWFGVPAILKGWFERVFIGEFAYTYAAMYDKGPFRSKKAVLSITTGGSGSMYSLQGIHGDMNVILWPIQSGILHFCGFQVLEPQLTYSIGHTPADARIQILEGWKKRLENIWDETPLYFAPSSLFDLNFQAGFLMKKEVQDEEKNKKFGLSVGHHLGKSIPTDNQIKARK

| SMILES | Enzymatic conversion rate relative to the 2-methyl-5,8-quinolinedione analogue ([1]; 11c vs 12c, 11e vs 12e) | NQO1 activity (enzymatic conversion rate) [1] | SI (IC50 HFF-1/IC50 cancer line) Colo-829 (Colo-829 cells) | IC50 (Colo-829 cells) | SI (IC50 HFF-1/IC50 cancer line) SK-OV-3 (SK-OV-3 cells) | IC50 (SK-OV-3 cells) | SI (IC50 HFF-1/IC50 cancer line) MDA-MB-231 (MDA-MB-231 cells) | IC50 (MDA-MB-231 cells) | SI (IC50 HFF-1/IC50 cancer line) T47D (T47D cells) | IC50 (T47D cells) | SI (IC50 HFF-1/IC50 cancer line) MCF-7 (MCF-7 cells) | IC50 (MCF-7 cells) | Activity against MCF-7 relative to A549 (MCF-7 cells; fold more active against MCF-7 than A549) | SI (IC50 HFF-1/IC50 cancer line) A549 (A549 cells) | IC50 (A549 cells) | IC50 (HFF-1 cells) | NQO1 activity (enzymatic conversion rate) ([1]; listed as streptonigrin) |
| --- | --- | --- | --- | --- | --- | --- | --- | --- | --- | --- | --- | --- | --- | --- | --- | --- | --- |
| O=C1C(Cl)=C(Oc2cccc3ccc(N4CCCC4)nc23)C(=O)c2ncccc21 [Compound 11e, 6-chloro-7-{[2-(pyrrolidin-1-yl)quinolin-8-yl]oxy}quinoline-5,8-dione] | 1.8 times | 1082 ± 51 µmol NADPH/µmol NQO1/min | 0.76 | 15 ± 0.32 µM | 6.66 | 1.72 ± 0.09 µM | 5.81 | 1.97 ± 0.13 µM | 0.55 | 20.8 ± 1.03 µM | 5.64 | 2.03 ± 0.03 µM | ~6 times | 0.94 | 12.1 ± 1.06 µM | 11.5 ± 0.69 µM |  |
| O=C1C(Cl)=C(Oc2cccc3ccc(N4CCOCC4)nc23)C(=O)c2ncccc21 [Compound 11f, 6-chloro-7-{[2-(morpholin-4-yl)quinolin-8-yl]oxy}quinoline-5,8-dione] |  | 113 ± 19 µmol NADPH/µmol NQO1/min | 1.83 | 14 ± 1.16 µM | 2.35 | 10.9 ± 0.48 µM | 1.86 | 13.8 ± 1.09 µM | 1.38 | 18.6 ± 0.62 µM | 1.58 | 16.21 ± 0.12 µM |  | 2.03 | 12.6 ± 0.82 µM | 25.64 ± 0.19 µM |  |
| Cc1ccc2c(n1)C(=O)C(Oc1cccc3ccc(N4CCCC4)nc13)=C(Cl)C2=O [Compound 12e, 6-chloro-2-methyl-7-{[2-(pyrrolidin-1-yl)quinolin-8-yl]oxy}quinoline-5,8-dione] |  | 600 ± 35 µmol NADPH/µmol NQO1/min | 11.48 | 1.53 ± 0.08 µM | 16.72 | 1.05 ± 0.06 µM | 11.71 | 1.5 ± 0.15 µM | 1.01 | 17.4 ± 1.3 µM | 9.29 | 1.89 ± 0.23 µM |  | 1.16 | 15.1 ± 0.39 µM | 17.6 ± 1.05 µM |  |
| Cc1ccc2c(n1)C(=O)C(Oc1cccc3ccc(N4CCOCC4)nc13)=C(Cl)C2=O [Compound 12f, 6-chloro-2-methyl-7-{[2-(morpholin-4-yl)quinolin-8-yl]oxy}quinoline-5,8-dione] |  | 210 ± 20 µmol NADPH/µmol NQO1/min | 1.49 | 13.3 ± 0.21 µM | 1.48 | 13.5 ± 0.21 µM | 1.95 | 10.2 ± 0.28 µM | 1.15 | 17.3 ± 0.26 µM | 1.41 | 14.1 ± 0.67 µM |  | 1.72 | 11.6 ± 0.72 µM | 19.9 ± 0.93 µM |  |
| COc1cccc2c1C(=O)c1c(O)c3c(c(O)c1C2=O)C[C@@](O)(C(=O)CO)C[C@@H]3O[C@H]1C[C@H](N)[C@H](O)[C@H](C)O1 [Doxorubicin, doxorubicin, reference compound] |  |  | 2.40 | 0.05 ± 0.01 µM | 0.80 | 0.15 ± 0.03 µM | 0.19 | 0.64 ± 0.06 µM | 3.00 | 0.04 ± 0.01 µM | 1.00 | 0.12 ± 0.05 µM |  | 6.00 | 0.02 ± 0.01 µM | 0.12 ± 0.03 µM |  |
| COC1=C(N)C(=O)c2nc(-c3nc(C(=O)O)c(C)c(-c4ccc(OC)c(OC)c4O)c3N)ccc2C1=O [ST, streptonigrin, reference compound] |  | 725 ± 84 µmol NADPH/µmol NQO1/min |  |  |  |  |  |  |  |  |  |  |  |  |  |  | 725 µmol NADPH/µmol NQO1/min |
